Reference: publication PMC10350923, “In Vitro and In Vivo Biological Activities of Dipicolinate Oxovanadium(IV) Complexes” (Journal of Medicinal Chemistry, 2023)
“And” between values parts separate entries of the source, which are not always exact repeats. Equal values may be shown once. “Also recorded” adds a separate entry of the source. Read-outs that look alike come from different tables or passages of the source.

How the values were obtained:
[1] = tested on: HCT116 (colorectal carcinoma cell line); test: MTS cell viability assay, HCT116; assay type: cell-based, human; settings: mean ± SEM
[2] = tested on: A2780 (ovarian carcinoma cell line); test: MTS cell viability assay, A2780; assay type: cell-based, human; settings: mean ± SEM
HCT116-DoxR spheroids = test: MTS assay in 3D spheroids; assay type: cell-based, human; settings: HCT116-DoxR spheroids 6- to 8-day-old, 48 h
HCT116-DoxR cells [3] = test: Cell internalization by ICP-AES; assay type: cell-based, human; settings: 3 h exposure to 10x IC50, ICP-AES
HCT116-DoxR cells [4] = test: Alexa Fluor 488-annexin V/PI apoptosis assay, flow cytometry; assay type: cell-based, human; settings: 48 h; for increase of percentage of apoptotic cells normalized to DMSO: IC50; for early apoptosis / late apoptosis / necrosis / percentage of apoptosis (total) / viable cells: complexes at IC50, cisplatin 5 μM, Dox 6 μM
BAX = test: Western blot, BAX expression; assay type: cell-based, human; settings: HCT116-DoxR, 48 h; for BAX/BCL-2 ratio normalized to DMSO control: IC50; for BAX protein expression vs DMSO control: IC50, normalized to β-actin
BCL-2 = test: Western blot, BCL-2 expression; assay type: cell-based, human; settings: HCT116-DoxR, 48 h, IC50, normalized to β-actin
cleaved PARP1 = test: Western blot, cleaved PARP1 expression; assay type: cell-based, human; settings: HCT116-DoxR, 48 h, IC50
HCT116-DoxR cells [5] = test: Mitochondrial membrane potential, JC-1, flow cytometry; assay type: cell-based, human; settings: 48 h, complexes at IC50, cisplatin 5 μM, Dox 6 μM
Text: The use of the fluorescent probe JC-1 (5,5,6,6′-tetrachloro-1,1′,3,3′ tetraethylbenzimidazolcarbocyanine iodide) allows the evaluation of ΔΨm, as the aggregation of the probe changes whether the mitochondrial membrane is hyperpolarized or depolarized.[95],[96] In healthy cells with high mitochondrial potential, JC-1 enters and accumulates inside mitochondria, where it forms complexes known as J-aggregates, emitting red fluorescence. However, in cells with a loss of ΔΨm, JC-1 is unable to remain in the mitochondria and exits to the cytoplasm, accumulating in its monomeric form and emitting green fluorescence. Thus, the ratio of the red/green fluorescence intensities can be used to indicate polarization (ratio > 1) or depolarization (ratio < 1) of the mitochondrial membrane (Figure 7).[94],[95]
(§1) Antibody; Cell Signalling Technology, USA).
(§2) Assay Kit (Abnova Corporation, Walnut, CA, USA).
(§3) vanadium complexes at its IC50 concentrations.
(§4) Cells were then incubated
(§5) Flow Cytometer (Life Technologies, Carlsbad, USA).
(§6) HCT116-DoxR cell line was cultivated

caspase-8 = test: Caspase-8 activity, IETD-pNA cleavage; assay type: cell-based, human; settings: HCT116-DoxR, 48 h; complexes at IC50, cisplatin 5 μM
Description: Since caspase-8 is an initiator caspase of the extrinsic apoptotic pathway, its activity was evaluated after HCT116-DoxR cells were exposed to complexes 5 and 8 (Figure 8).
The chromogenic substrate IETD-pNA, which results from the conjugation between the peptide IETD (Ile-Glu-Thr-Asp) and the chromophore p-nitroanilide (pNA), is cleaved by caspase-8 and releases pNA, which can be detected by measuring absorbance at 400 nm.[99] Therefore, if complexes 5 and 8 induce cell death through the extrinsic apoptotic pathway, there is an increase in absorbance at 400 nm compared to the control sample, corresponding to an increase in caspase-8 activity that is translated into the cleavage of the substrate IETD-pNA (Figure 8).
as §1, §2, §3, §4, §5, §6

HCT116-DoxR cells [6] = test: ROS production, H2DCF-DA, flow cytometry; assay type: cell-based, human; settings: 48 h, IC50
Description: Thus, the level of ROS present in HCT116-DoxR cells after their exposure to vanadium complexes was quantified (Figure 10). The probe 2′,7′-dichlorohydrofluorescein diacetate (H2DCF-DA), which diffuses into cells and is deacetylated by cellular esterases resulting in a nonfluorescent compound, was used. Inside the cell, this molecule is oxidized by ROS and then originates the fluorescent molecule 2′,7′-dichlorofluorescein (DCF) that can be detected by flow cytometry.[103]
(§7) finishing the 48 h period.
(§8) Attune® Cytometric software.
(§9) Butyl hydroperoxide) were used as controls.
(§10) Cells were later analysed
(§11) (double thymidine block).
(§12) After this, the pellet was resuspended in
Control solutions were also prepared, namely a […]

[7] = molecular target: T1, BSA (bovine serum albumin) (Bos taurus, UniProt P02769); test: BSA binding, UV-vis and fluorescence spectroscopy; settings: for BSA fluorescence with increasing complex concentrations: BSA 20 μM, complexes 10-100 μM, pH 7.0, 24 h, 37 °C; for interaction with BSA protein: UV-vis and fluorescence spectroscopy
T1 construct: I (1–195), II (196–383), and III (384–583)
T1 sequence (P02769 25-607): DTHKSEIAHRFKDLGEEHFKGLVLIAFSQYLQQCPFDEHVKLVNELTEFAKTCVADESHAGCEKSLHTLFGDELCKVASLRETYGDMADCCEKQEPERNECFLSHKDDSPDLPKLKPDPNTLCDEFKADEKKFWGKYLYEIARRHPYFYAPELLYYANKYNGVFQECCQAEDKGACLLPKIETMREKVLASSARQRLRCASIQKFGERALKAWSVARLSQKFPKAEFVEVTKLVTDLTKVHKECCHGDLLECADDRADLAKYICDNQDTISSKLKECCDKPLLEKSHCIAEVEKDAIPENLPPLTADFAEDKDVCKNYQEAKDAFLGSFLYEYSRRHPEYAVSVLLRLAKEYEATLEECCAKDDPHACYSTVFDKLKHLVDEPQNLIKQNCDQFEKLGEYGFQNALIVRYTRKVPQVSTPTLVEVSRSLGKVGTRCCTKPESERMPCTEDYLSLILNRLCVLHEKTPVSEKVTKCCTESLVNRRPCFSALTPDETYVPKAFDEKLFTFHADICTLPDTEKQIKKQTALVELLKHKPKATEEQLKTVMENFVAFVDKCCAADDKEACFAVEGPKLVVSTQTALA

fibroblasts = test: Cell migration (wound healing) assay; assay type: cell-based, human; settings: 24 h, IC50
Description: In the wound healing assay, a region without cells is generated, being then exposed to the compounds, and the cell migration is analyzed after 24 h, to determine the cells’ ability to proliferate and refill the gap previously formed (Figure 14).[116]
as §7, §8, §9, §10, §11, §12
Control solutions were also prepared, namely a
DMSO only. […] The UV-Vis spectra were […]

[8] = tested on: chick chorioallantoic membrane; test: Ex ovo chick chorioallantoic membrane (CAM) assay, angiogenesis; assay type: in vivo, chicken; settings: chick embryo CAM; for anti-/pro-angiogenic potential, newly formed blood vessels, 48 h: IC50, 48 h
Text: The ex ovo CAM assay was used to evaluate the role of vanadium complexes in the process of angiogenesis. CAM is a chicken extraembryonic membrane and is often used to study the process of angiogenesis in vivo as it has a high density of blood and lymphatic vessels.[120] This assay consists of analyzing certain vascularized areas of the chorioallantoic membrane of a chicken embryo. Initially, o-rings are placed covering those membrane vascularized areas being then exposed to the complexes. Pictures are then taken at 0, 24, and 48 h after exposure to the complexes and the number of blood vessels present at each hour are counted and compared. The results can be observed in Figure 15.
Ex-ovo Chick Chorioallantoic Membrane (CAM) assay
The ex-ovo chorioallantoic membrane (CAM) assay was performed in order to evaluate the angiogenic potential of vanadium complexes, as already described in literature11–13. Firstly, chicken embryos were […]
concentration of each complex dissolved in PBS 1x was placed in the centre of O-rings. Beside each complex, DMSO 0.1% (v/v) was used as a control and complex distribution in chicken embryos was always performed in a different order. The embryos were incubated for 48 h at 37 °C and images were […]
Newly formed blood vessels were later manually counted, via ImageJ software.
The ex-ovo CAM assay fulfils the Directive 2010/63/ EU of the European Parliament for protection of animal models for scientific purposes.
All data are presented as Mean ± SEM from at least two independent experiments unless otherwise specified. One-way ANOVA or Student’s t-test were used to determine statistical significance (p < 0.05) using the GraphPad Prism 8 software (GraphPad Software, San Diego, CA, USA).

[9] = Stability and solubility in RPMI culture medium, UV-vis; assay type: physicochemical; settings: UV-vis at 0, 24, 48 h
[10] = tested on: HCT116-DoxR (doxorubicin-resistant colorectal carcinoma cell line); test: MTS cell viability assay, HCT116-DoxR;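 also: MTS colorimetric quantification of viable cells, with loss of viability tracked as complex concentration rises, in DMEM-grown HCT116-DoxR, a line whose resistance involves P-glycoprotein efflux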
Description: (§13) To assess the cytotoxicity of vanadium complexes in tumor and healthy cells, the MTS assay, a colorimetric method that allows the quantification of viable cells present in solution,[71] was performed.
Cell culture and maintenance
(§14) The A2780 cancer cell line (ovarian carcinoma) was purchased from Sigma-Aldrich (Madrid, Spain)
(§15) while HCT116 cancer cell line (colorectal carcinoma) and the normal human primary dermal
(§16) fibroblasts were obtained from American Type Culture Collection (ATCC®, Manassas, VA, USA).
(§17) HCT116 Dox-resistant cell line (HCT116-DoxR) was derived from HCT116 parental cells, as
(§18) All cells were cultured in Dulbecco’s modified Eagle medium (DMEM), except the A2780 cell line
(§19) which was cultured in RPMI (Roswell Park Memorial Institute) medium. Both media were
(§20) supplemented with 10% (v/v) fetal bovine serum (FBS) and 1% (v/v) of a Pen/Strep
(§21) (Penicillin/Streptomycin) solution. HCT116-DoxR cell medium was additionally supplemented with
(§22) All media and supplements were purchased from Thermo Fischer Scientific (Waltham, Massachusetts, USA).
(§23) (SANYO CO2 Incubator, Electric Biomedical Co., Osaka, Japan).
(§24) HCT116, HCT116-DoxR and A2780 cancer cell lines and normal human primary fibroblasts were
(§25) used in cellular viability assays. Cells were seeded in a density of 0.75×10^5 cells/mL into 96 well-
(§26) After the 24 h of incubation, complexes were
(§27) weight and immediately solubilized in 100% (v/v) DMSO and then, diluted for the final concentration
(§28) with cell culture medium. The medium in each 96 well-plates will be replaced by fresh medium
(§29) containing each vanadium complex (concentrations ranging from 0.01 µM to 50 µM). Culture medium
(§30) with 0.1% (v/v) DMSO and 0.4 µM Dox were used as negative and positive controls, respectively.

[11] = tested on: normal human primary dermal fibroblasts; test: MTS cell viability assay, fibroblasts; settings: read-out: IC50 fibroblasts; 48 h of exposure, MTS, mean ± SEM
Description: as §13
Cell culture and maintenance
as §14, §15, §16, §17, §18, §19, §20, §21, §22, §23, §24, §25, §26, §27, §28, §29, §30

HCT116-DoxR cells [12] = test: Cell cycle progression, PI, flow cytometry; settings: HCT116-DoxR, 3, 9, 24, 32 h; complexes at IC50, cisplatin 5 μM, Dox 6 μM
HCT116-DoxR cells [13] = test: Autophagy induction, Green Detection Reagent, flow cytometry; settings: 48 h, complexes at IC50, cisplatin 5 μM, Dox 6 μM
[14] = n-octanol/PBS buffer partition coefficient, shake-flask, UV-vis; settings: room temperature
Description: The lipophilicity of V(IV) complexes was investigated using the classical shake-flash method at room temperature in the two-phase system of immiscible solvents n-octanol/PBS buffer.[69],[70] The transfer of V(IV) compounds from the aqueous environment to the organic phase was monitored by UV–vis spectroscopy.
The n-octanol/PBS buffer partition coefficients (logP) were determined by shake-flash approach, and
the transfer of V(IV) compounds from the aqueous environment to the organic phase was monitored
by UV-Vis spectroscopy5,6. Solutions of 1–10 of concentrations in the range 10-100 M were prepared
in PBS buffer saturated with n-octanol from the freshly-prepared stock solution in DMSO (5mM or 50
mM), and their UV-Vis spectra were recorded. The solution of 1–10 in aqueous buffer (3 ml) were
mixed with n-octanol saturated with pH 7.4 aqueous buffer (3 ml), and the obtained mixtures were
stirred in a mechanical shaker for 30 min. The mixtures were allowed to stand at room temperature for
24 h, and after this time, the aqueous phases were separated, and the concentrations of 1–10 were
determined by measuring their UV-Vis spectra. For each complex, the highest energy absorption band was taken into consideration to determine the sample concentration.

[15] = tested on: HCT116-DoxR (doxorubicin-resistant colorectal carcinoma cell line); settings: doxorubicin in resistant line; cited from earlier work
[16] = read-out: IC50 2D, HCT116-DoxR 2D culture, 48 h
[17] = read-out: IC50 HCT116-DoxR, 48 h of exposure, MTS, mean ± SEM

Row | SMILES | IC50 ([1]; 48 h of exposure) [nM] | IC50 ([2]; 48 h of exposure) [nM] | IC50 (HCT116-DoxR spheroids) [nM] | Concentration in cells (HCT116-DoxR cells [3]) [µM] | Internalized percentage (HCT116-DoxR cells [3]) | increase of percentage of apoptotic cells normalized to DMSO (HCT116-DoxR cells [4]) [fold] | early apoptosis (HCT116-DoxR cells [4]) [%] | late apoptosis (HCT116-DoxR cells [4]) [%] | necrosis (HCT116-DoxR cells [4]) [%] | percentage of apoptosis (total) (HCT116-DoxR cells [4]) | viable cells (HCT116-DoxR cells [4]) [%] | BAX/BCL-2 ratio normalized to DMSO control (BAX) | BAX protein expression vs DMSO control (BAX) | BCL-2 protein expression vs DMSO control (BCL-2) | increase in expression of cleaved PARP1 vs 0.1% DMSO (cleaved PARP1) [fold] | caspase-8 activity vs 0.1% DMSO (caspase-8) | ROS production, increase over the DMSO control (HCT116-DoxR cells [6]) [fold] | BSA fluorescence with increasing complex concentrations [7] | cell cycle arrest / cytostatic effect (HCT116-DoxR cells [12]) | increase of autophagic vesicles over the control (HCT116-DoxR cells [13]) [fold] | also measured
1 | O=C1[O][V](=[O])[O]C(=O)c2cccc1n2.c1ccc(-c2ccnc3c2ccc2c(-c4ccccc4)ccnc23)cc1 [complex 6, [VO(dipic)(4,7-Ph2-phen)]] | 900 ± 30 | 200 ± 90 | 3100 ± 420 | 1.672 | 98.32% and ~100% | 2.5 | 57.7 ± 5.8 | 13.4 ± 5.9 | 1.2 ± 0.9 | about 70% | 27.7 ± 7.9 | ~3 | increase | decrease | 8 | not detected | 2.6 | high decrease in BSA fluorescence | no cell cycle arrest | ~2.3 | JC-1 red/green fluorescence intensity ratio normalized to DMSO (HCT116-DoxR cells [5]): ~0.69; interaction with BSA protein [7]: capable of interacting; cell migration (wound remission) (fibroblasts): do not promote cell migration; anti-angiogenic potential, newly formed blood vessels, 24 h ([8]; IC50, 24 h): some anti-angiogenic potential; anti-/pro-angiogenic potential, newly formed blood vessels, 48 h [8]: no longer present; also recorded: no anti-/pro-angiogenic potential; solubility in RPMI culture medium over time [9]: loss of solubility over time; stability in RPMI culture medium [9]: no spectral changes over time; IC50 [10, 16]: 200 ± 50 nM; IC50 [10, 17]: 200 ± 50 nM; IC50 [11]: 4000 ± 50 nM; log P [14]: 0.57
2 | COc1ccnc2c1ccc1c(OC)ccnc12.O=C1[O][V](=[O])[O]C(=O)c2cccc1n2 [complex 5, [VO(dipic)(4,7-(CH3O)2-phen)]] | 1800 ± 40 | 1300 ± 10 | 3500 ± 200 | 1.590 | 98.55% and ~100% | 2.5 | 59.4 ± 3.6 | 11.5 ± 5.0 | 0.8 ± 0.6 | about 70% | 28.3 ± 3.5 | ~1 | increased expression | increased expression | 5 | higher level of caspase-8 | 2.5 | high decrease in BSA fluorescence | no cell cycle arrest | ~2.3 | interaction with BSA protein [7]: capable of interacting; cell migration (wound remission) (fibroblasts): do not promote cell migration; anti-/pro-angiogenic potential, newly formed blood vessels, 48 h [8]: no anti-/pro-angiogenic potential; stability in RPMI culture medium [9]: no structural changes; IC50 [10, 16]: 200 ± 100 nM; IC50 [10, 17]: 200 ± 100 nM; IC50 [11]: 3100 ± 70 nM; log P [14]: 0.55
3 | COc1cccc2c1C(=O)c1c(O)c3c(c(O)c1C2=O)C[C@@](O)(C(=O)CO)C[C@@H]3O[C@H]1C[C@H](N)[C@H](O)[C@H](C)O1 [doxorubicin, reference compound] | – | – | – | – | – | – | 19.0 ± 4.4 | – | 11.2 ± 2.0 | 34% | 54.9 ± 4.3 | – | – | – | – | – | – | – | did not occur | ~2.3 | IC50 ([1]; Homo sapiens, HCT-116, 48 h of exposure): 500 ± 100 nM; IC50 ([2]; Homo sapiens, A2780, 48 h of exposure): 100 ± 40 nM; necrosis (HCT116-DoxR cells [4]; listed as Dox): 11%; viable cells (HCT116-DoxR cells [4]; listed as Dox): about 55%; IC50 [15]: > 6000 nM
